Data reported in US7122673B2, “Preparation of fused polycyclic alkaloids by ring closure of azomethine ylides, novel compounds thereof and their use as chemotherapeutic agents” (The Australian National University, priority 1997, dated 2006).

Columns and labels:
lung cancer cell lines = conditions: acting as a Type IV microtubule poison; background statement; cited from earlier work
fertilised sea urchin = fertilised sea urchin assay; background statement; cited from earlier work
P388 cell lines = conditions: cell line in culture; background statement; cited from earlier work
A549 cell lines = conditions: cell line in culture; background statement; cited from earlier work

Row | Compound | cytotoxicity against P388 (P388 cell lines) | cytotoxicity against A549 (A549 cell lines) | also measured
1 | COc1ccc(-c2c3c4cc(OC)c(O)cc4oc(=O)c3n3ccc4cc(O)c(OC)cc4c23)cc1O [Lamellarin N] | – | – | activity in lung cancer cell lines (lung cancer cell lines): exhibit activity
2 | COc1cc(-c2c3c4cc(OC)c(O)cc4oc(=O)c3n3ccc4cc(O)c(OC)cc4c23)ccc1O [Lamellarin D] | – | – | inhibition of cell division (fertilised sea urchin): inhibition of cell division
3 | COc1ccc(-c2c3n(c4c(=O)oc5cc(O)c(OC)cc5c24)CCc2cc(O)c(OC)cc2-3)cc1O [Lamellarin L] | comparable and significant cytotoxicity | comparable and significant cytotoxicity | –
4 | Lamellarin I | comparable and significant cytotoxicity | comparable and significant cytotoxicity | –
5 | Lamellarin K | comparable and significant cytotoxicity | comparable and significant cytotoxicity | –
6 | COc1cc(-c2c3n(c4c(=O)oc5cc(O)c(OC)cc5c24)CCc2cc(OC)c(OC)cc2-3)ccc1O [Compound 35, 10-Deoxylamellarin K] | – | – | melting point: 292 to 294 °C
7 | COc1cc(-c2c3n(c4c(=O)oc5cc(O)c(OC)cc5c24)CCc2c-3cc(OC)c(OC)c2OC)ccc1O [Lamellarin C] | – | – | inhibition of cell division (fertilised sea urchin): inhibition of cell division
